# Reference: patent US20090022803A1, “Oral Formulations For Delivery of Catecholic Butanes Including Ndga Compounds” (priority 2005, published 2009)
# System: HeLa cells
# Assay: Cell proliferation and cell death after 72 hr treatment, trypan blue exclusion
# Assay type: cell-based, human
# Conditions: CPE formulation, lots EM1001 and EM1002
# Description: M4N in 10% (w/v) HP-β-CD and 25% (v/v) PEG 300 (hereafter, the “CPE formulation”), M4N in 30% (w/v) HP-β-CD and 25% (v/v) PEG 300 (hereafter, the “CPE 25/30 formulation”) and M4N in 27% (w/v) HP-β-CD and 33% (v/v) PEG 300 (hereafter, the “CPE 33/27 formulation”) was tested for their effects on cell death and proliferation on two different tumor cell lines: HeLa, an HPV-18 positive human cervical cancer cell line, and C-33A, an HPV-negative human cervical cancer cell line. M4N in DMSO was also tested in parallel. Both tumor cell lines were treated with increasing amounts of M4N: 0 μM, 20 μM, 40 μM, 60 μM and 80 μM, for 72 hr with the DMSO or the CPE formulation. […] After 72 hr of treatment or no treatment, the total number of cells and the number of live cells in each sample were counted, using the trypan blue exclusion method. The cell proliferation rate and the percentage of dead cells in each sample were analyzed. […]
# Various lots of M4N were tested to show the effectiveness of the drug of different lots. […] After 72 hr of treatment or no treatment, the total number of cells and the number of live cells in each sample were counted, using the trypan blue exclusion method. The cell proliferation rate and the percentage of dead cells in each sample were analyzed.
smiles,measurement,value
"COc1ccc(C[C@@H](C)[C@@H](C)Cc2ccc(OC)c(OC)c2)cc1OC [Formulation M4N, meso-1,4-bis(3,4-dimethoxyphenyl)-2,3-dimethylbutane]",effectiveness of different lots of M4N,remains the same
